Assay results: ChEMBL document CHEMBL5523701, “Structure-based discovery of small molecule inhibitors of FKBP51-Hsp90 protein-protein interaction” (Eur J Med Chem, 2024)

What was measured:
[1] = target: T1, Mitochondrial import receptor subunit TOM70 (Homo sapiens, UniProt O94826); experiment: Inhibition of GST-tagged human TOM70 expressed in Escherichia coli BL21 (DE3) using NH2-EDASRMEEVD-COOH peptide as substrate preincubated for 15 mins followed by substrate addition measured after 15 mins by Alpha Screen assay
T1 sequence (O94826 whole entry): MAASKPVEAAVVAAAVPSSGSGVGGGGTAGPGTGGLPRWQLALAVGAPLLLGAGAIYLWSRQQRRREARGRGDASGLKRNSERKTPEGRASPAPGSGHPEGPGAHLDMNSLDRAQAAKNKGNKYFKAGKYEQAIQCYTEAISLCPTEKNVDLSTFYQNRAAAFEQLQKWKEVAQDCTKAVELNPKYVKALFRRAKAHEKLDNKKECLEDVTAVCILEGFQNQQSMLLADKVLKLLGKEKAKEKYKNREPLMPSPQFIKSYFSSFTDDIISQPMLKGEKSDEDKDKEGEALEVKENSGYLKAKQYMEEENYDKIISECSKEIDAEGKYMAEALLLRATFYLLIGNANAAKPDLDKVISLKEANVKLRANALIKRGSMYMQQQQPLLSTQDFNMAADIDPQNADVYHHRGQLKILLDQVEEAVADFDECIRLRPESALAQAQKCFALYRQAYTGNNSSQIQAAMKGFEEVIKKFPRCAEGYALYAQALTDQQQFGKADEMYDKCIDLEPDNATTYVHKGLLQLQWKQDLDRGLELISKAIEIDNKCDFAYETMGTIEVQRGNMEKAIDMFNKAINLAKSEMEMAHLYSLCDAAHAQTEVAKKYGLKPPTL

[2] = target: T2, DnaJ homolog subfamily C member 7 (Homo sapiens, UniProt Q99615); experiment: Inhibition of GST-tagged human DNAJC7 expressed in Escherichia coli BL21 (DE3) using NH2-EDASRMEEVD-COOH peptide as substrate preincubated for 15 mins followed by substrate addition measured after 15 mins by Alpha Screen assay
T2 sequence (Q99615 whole entry): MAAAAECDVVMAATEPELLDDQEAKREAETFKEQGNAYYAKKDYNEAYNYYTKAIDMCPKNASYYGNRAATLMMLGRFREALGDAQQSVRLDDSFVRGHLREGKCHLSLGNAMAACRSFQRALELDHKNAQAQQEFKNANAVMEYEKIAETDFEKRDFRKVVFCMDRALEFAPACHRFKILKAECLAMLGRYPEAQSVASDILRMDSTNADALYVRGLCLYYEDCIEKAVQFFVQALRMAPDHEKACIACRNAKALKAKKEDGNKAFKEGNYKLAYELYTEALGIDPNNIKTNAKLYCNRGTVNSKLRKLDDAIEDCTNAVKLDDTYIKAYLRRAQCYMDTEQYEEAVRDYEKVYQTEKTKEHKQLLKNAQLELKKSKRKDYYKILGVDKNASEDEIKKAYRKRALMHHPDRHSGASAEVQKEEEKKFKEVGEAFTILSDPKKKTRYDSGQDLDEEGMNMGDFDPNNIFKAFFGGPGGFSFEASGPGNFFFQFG

[3] = target: Peptidyl-prolyl cis-trans isomerase FKBP8 (Homo sapiens, UniProt Q14318); experiment: Inhibition of GST-tagged human FKBP38 expressed in Escherichia coli BL21 (DE3) using NH2-EDASRMEEVD-COOH peptide as substrate preincubated for 15 mins followed by substrate addition measured after 15 mins by Alpha Screen assay
Sequence of Peptidyl-prolyl cis-trans isomerase FKBP8 (Q14318 whole entry): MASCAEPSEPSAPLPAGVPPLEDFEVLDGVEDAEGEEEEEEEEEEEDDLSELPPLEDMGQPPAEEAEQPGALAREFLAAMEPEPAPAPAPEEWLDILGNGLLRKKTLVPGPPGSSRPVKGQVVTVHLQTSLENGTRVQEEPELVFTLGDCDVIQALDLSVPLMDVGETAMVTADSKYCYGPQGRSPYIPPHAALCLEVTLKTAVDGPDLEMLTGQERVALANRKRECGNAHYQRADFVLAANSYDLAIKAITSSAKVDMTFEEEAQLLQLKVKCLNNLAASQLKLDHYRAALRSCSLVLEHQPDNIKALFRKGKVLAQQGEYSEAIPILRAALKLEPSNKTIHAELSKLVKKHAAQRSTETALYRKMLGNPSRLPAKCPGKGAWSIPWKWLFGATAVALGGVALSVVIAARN

[4] = target: Small glutamine-rich tetratricopeptide repeat-containing protein alpha (Homo sapiens, UniProt O43765); experiment: Inhibition of GST-tagged human SGTA expressed in Escherichia coli BL21 (DE3) using NH2-EDASRMEEVD-COOH peptide as substrate preincubated for 15 mins followed by substrate addition measured after 15 mins by Alpha Screen assay
Sequence of Small glutamine-rich tetratricopeptide repeat-containing protein alpha (O43765 whole entry): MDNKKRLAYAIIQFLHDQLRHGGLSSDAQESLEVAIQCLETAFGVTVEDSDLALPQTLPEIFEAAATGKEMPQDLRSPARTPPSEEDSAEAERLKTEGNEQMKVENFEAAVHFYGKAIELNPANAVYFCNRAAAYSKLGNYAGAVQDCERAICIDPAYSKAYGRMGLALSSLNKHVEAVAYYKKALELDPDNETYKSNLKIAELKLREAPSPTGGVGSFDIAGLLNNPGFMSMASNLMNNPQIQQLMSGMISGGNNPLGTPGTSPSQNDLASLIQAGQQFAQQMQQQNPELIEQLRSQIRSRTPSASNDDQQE

[5] = target: T3, Serine/threonine-protein phosphatase 5 (Homo sapiens, UniProt P53041); experiment: Inhibition of GST-tagged human PP5 expressed in Escherichia coli BL21 (DE3) using NH2-EDASRMEEVD-COOH peptide as substrate preincubated for 15 mins followed by substrate addition measured after 15 mins by Alpha Screen assay
T3 sequence (P53041 whole entry): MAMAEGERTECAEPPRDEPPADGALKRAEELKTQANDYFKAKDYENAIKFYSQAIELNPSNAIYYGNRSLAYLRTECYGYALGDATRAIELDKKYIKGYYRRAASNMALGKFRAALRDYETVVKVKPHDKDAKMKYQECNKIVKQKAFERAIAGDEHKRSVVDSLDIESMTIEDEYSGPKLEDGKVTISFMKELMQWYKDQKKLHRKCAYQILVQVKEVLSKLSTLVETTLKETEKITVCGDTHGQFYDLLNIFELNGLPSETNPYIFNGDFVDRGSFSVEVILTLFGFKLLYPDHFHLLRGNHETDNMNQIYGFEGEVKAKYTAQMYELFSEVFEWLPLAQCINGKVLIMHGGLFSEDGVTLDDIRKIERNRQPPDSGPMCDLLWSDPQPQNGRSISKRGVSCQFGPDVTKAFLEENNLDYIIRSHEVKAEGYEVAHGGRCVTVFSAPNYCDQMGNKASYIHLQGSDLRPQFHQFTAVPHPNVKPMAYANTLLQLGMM

[6] = target: T4, Mitochondrial import receptor subunit TOM34 (Homo sapiens, UniProt Q15785); experiment: Inhibition of GST-tagged human TOM34 expressed in Escherichia coli BL21 (DE3) using NH2-EDASRMEEVD-COOH peptide as substrate preincubated for 15 mins followed by substrate addition measured after 15 mins by Alpha Screen assay
T4 sequence (Q15785 whole entry): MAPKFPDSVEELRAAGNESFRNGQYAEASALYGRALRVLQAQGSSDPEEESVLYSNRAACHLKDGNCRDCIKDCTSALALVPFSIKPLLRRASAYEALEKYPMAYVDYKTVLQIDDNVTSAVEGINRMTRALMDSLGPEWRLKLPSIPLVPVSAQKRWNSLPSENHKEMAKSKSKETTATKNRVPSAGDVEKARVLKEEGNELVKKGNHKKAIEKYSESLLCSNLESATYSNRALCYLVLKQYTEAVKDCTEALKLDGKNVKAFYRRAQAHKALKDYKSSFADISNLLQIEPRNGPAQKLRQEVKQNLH

[7] = target: T5, E3 ubiquitin-protein ligase CHIP (Homo sapiens, UniProt Q9UNE7); experiment: Inhibition of GST-tagged human CHIP expressed in Escherichia coli BL21 (DE3) using NH2-EDASRMEEVD-COOH peptide as substrate preincubated for 15 mins followed by substrate addition measured after 15 mins by Alpha Screen assay
T5 sequence (Q9UNE7 whole entry): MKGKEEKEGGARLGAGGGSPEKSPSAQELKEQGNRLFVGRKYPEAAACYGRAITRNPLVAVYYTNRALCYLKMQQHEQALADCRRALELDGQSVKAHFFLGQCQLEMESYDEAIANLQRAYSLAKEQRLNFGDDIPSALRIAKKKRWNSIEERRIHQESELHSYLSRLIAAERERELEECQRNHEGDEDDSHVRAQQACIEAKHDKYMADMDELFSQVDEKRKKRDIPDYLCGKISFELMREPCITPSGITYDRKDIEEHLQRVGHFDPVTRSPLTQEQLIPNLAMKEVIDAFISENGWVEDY

| IC50 [1] [nM] | IC50 [2] [nM] | IC50 [3] [nM] | IC50 [4] [nM] | IC50 [5] [nM] | IC50 [6] [nM] | IC50 [7] [nM] | Structure (SMILES) |
| --- | --- | --- | --- | --- | --- | --- | --- |
| 1200 | 2000 | 4000 | 2000 | 2000 | 3000 | 2500 | Cc1sc(NC(=O)CCCC(=O)Nc2sc(C)c(C)c2C(N)=O)c(C(N)=O)c1C |
| 5000 | 4000 | 2500 | 6000 | 2500 | 4000 | 2500 | COC(=O)c1c(NC(=O)CSc2nnc(-c3ccco3)c(-c3ccco3)n2)sc(C)c1C |
